Patent US20070072209A1, “Methods of treatment and diagnosis of Kaposi's sarcoma (KS) and KS related diseases” (priority 2005, published 2007)

Legend:
Format in all cases: cell-based, human
KSHV-infected DMVEC [1] = test: Morpholino treatment and focus inhibition assay (Example 5); settings: for Foci/spindle morpholigical inhibition: PMO-treated KSHV-infected DMVEC vs control PMO, repeated three times; for effect on phenotype (foci, spindle shape) in focus-inhibition assay (in words): PMO-AS, KSHV-infected DMVEC, 5-10 days
Protocol: Morpholino Treatment and Focus Inhibition Assay. Phosphorodiamidate morpholino antisense oligonucleotides (PMO-AS) were designed and synthesized by Gene Tools LLC (Philomath, Oreg.) as a Special Delivery formulation, which pairs the morpholino with a partially complementary DNA oligo. A weakly basic delivery agent, Ethoxylated Polyethlyenimine (EPEI) is then used to deliver the anionic morpholino/DNA duplex into the cytosol. PMO-AS were received as sterile, lyophilized solids ([…]) that were solubilized in sterile water to obtain 0.5 mM stock solutions. To load a 35 mm dish of DMVEC at 90% confluence, 5 microl of stock solution was mixed with 5 microl of EPEI delivery solution in 590 μl H20 for 20 minutes at room temperature, and then mixed with 1.5 ml of serum-free RPMI medium. Endothelial growth media was removed from DMVEC, and replaced with the PMO-AS:EPEI:RPMI delivery solution for 3 hours in a 37° C. incubator. After incubation, cells were rinsed, complete endothelial growth medium was added and cells were cultured for up to 10 days without sub-culture, with media replacement every 48-72 hours. This protocol allows for the characteristic post-confluent growth and development of multi-layered spindle-cell aggregates (foci) in KSHV-infected cultures. Cells were monitored daily under the phase microscope to evaluate PMO-AS-inhibition of the development of these foci. At the conclusion of an assay, cells were fixed in 2% paraformaldehyde and stained with a MAB against CD31 (Dako; 1:100) followed by a goat-anti-mouse FITC second conjugate. Junctional staining of cells with CD31 accentuated the disorganized multi-layered nature of the spindle cell aggregates as composed to the flat, organized profile of contact-inhibited cells.
For these assays, KSHV-infected DMVEC monolayers were cultured to 90% confluence and then loaded with each PMO-AS, or maintained as unloaded controls. Cultures were observed daily until control cultures had developed prominent multi-layered aggregates of spindle cells. Typically this took 5-10 days with some variation between replicate experiments. Each experiment was performed at least three times and was performed with mock-infected as well as KSHV-infected DMVEC. As expected, mock-infected DMVEC maintained a quiescent monolayer at confluence, and PMO-AS treatment of uninfected cells occurred without any adverse effect. This observation allowed verification that none of the gene knockdown treatments induced non-specific toxicity in DMVEC. The majority of tested PMO-AS had no effect on the ability of KSHV-infected DMVEC to grow post-confluence and form disorganized, multi-layered foci (TABLE 2).

KSHV-infected DMVEC [2] = test: XTT assay of PMO-AS effect on post-confluent growth (Example 5); settings: 72 hours
Protocol: XTTAssay. Metabolism of XTT to a water-soluble formazan dye by viable cells gives a quantitative determination of relative cell number. The XTT assay was thus used to quantitatively assess the effect of PMO-AS treatment on KSHV focus formation and post-confluent growth. For these assays, KSHV-infected and uninfected DMVEC were seeded into 96-well flat-bottom Primaria trays at 10^4 cells/well, loaded with PMO-AS after overnight equilibration, and cultured for 72 hrs. For the final 4 hours of culture, 50 μl XTT (Roche Diagnostics, Indianapolis, Ind.) was added to each well and the optical density (OD) of each well was recorded by an ELISA reader between 450 and 500 nm. To verify efficient (>80%) PMO-AS uptake in the 96-well format, cells were treated with a FITC-tagged morpholino (FITC-PMO) and uptake visually assessed under a fluorescence microscope. This FITC-PMO also served as a control for any non-specific effect of the PMO-AS:EPEI complex on DMVEC growth. As a positive control, cells were treated with a c-Kit PMO-AS previously shown to inhibit KSHV-induced transformation (Moses, 2002). For NIH 3T3 cells, the XTT assay was performed in 96-well plates at a cell density of 10^4 cells/well, and OD measured at 48 hours.
In view of the above-described effects of Neuritin- and RDC1-specific PMO-AS in inhibiting focus formation of KSHV-infected DMVEC, a further determination was made to determine whether such inhibition correlated with reduced cellular proliferation. Such reduced cellular proliferation would be expected, because the development of multilayered cell foci requires additional cell growth that would not occur if contact inhibition was maintained. A colorimetric cellular proliferation assay was used to assess cell growth. […] This growth can be accurately assessed by monitoring the metabolism of XTT added to each well by measurement of optical density at […] (e.g., 4 hours post XTT addition). […] To verify efficient (>80%) PMO-AS uptake in the 96-well format, cells were treated with a FITC-tagged PMO-AS (FITC-PMO) and uptake visually assessed under a fluorescence microscope. […]

KSHV-infected DMVEC [3] = test: XTT proliferation assay of PMO-loaded KSHV-infected DMVEC (Example 3); settings: PMO antisense silencing
Protocol: Proliferation assays, and loading of cells with PMOs. Proliferation of KSHV-infected DMVEC was quantified using an XTT (2,3-bis-(2-methoxy-4-nitro-5-sulfophenyl)-2H-tetrazolium-5-carboxanilide, disodium salt)-based assay. KSHV-infected cells were added to Primaria 96-well trays (Becton Dickinson) at 1×10^4 or 5×10^4 cells/well. XTT (Roche, Molecular Biochemicals, Indianapolis, Ind.) was added 48 hours later according to the manufacturer's instructions. Absorbance was read after 4 to 6 hours on a microplate reader.
Briefly, cells were plated in 96-well trays at a density approaching confluence (5×10^4 cells per well) in 100 μl of complete medium. PMOs were loaded the following day in a total of 100 μl (0.5 μl PMO, 0.5 μl EPEI, 49 μl H2O and 50 μl serum free medium) with reagent mixing as described by the manufacturer (GeneTools). Controls included a FITC PMO control oligonucleotide, EPEI only or H2O only. Each variable was performed in quadruplicate. Fresh complete medium was replaced 4 hours after loading. Cells were cultured for 4 days to allow for multi-layered cell growth post-confluence in the absence of any growth inhibition. XTT was added on day 4 of culture and the absorbance read 4 hrs later on a microplate reader. Cell proliferation (growth) values are given as percentage inhibition values, relative to cells without PMO, which are adjusted to 100%.

Substance	Foci/spindle morpholigical inhibition (KSHV-infected DMVEC [1])	effect on cell growth in XTT assay (in words) (KSHV-infected DMVEC [2])	inhibition of KSHV-induced cellular proliferation (in words) (KSHV-infected DMVEC [3])	effect on phenotype (foci, spindle shape) in focus-inhibition assay (in words) (KSHV-infected DMVEC [1])
KIT: FITC-labeled PMO targeting the start codon of c-Kit, CGCCTCTCATCGCGGTAGCTGCG (SEQ ID NO:21) (all phosphorodiamidate morpholino (PMO); FITC label attached, position not given here)	Full	dramatically inhibited cell growth	substantial inhibition	–
Neuritin: PMO antisense to Neuritin, TTAACTCCCATCCTACGTTTAGTCA (SEQ ID NO:19) (all phosphorodiamidate morpholino (PMO); delivered paired with partially complementary DNA oligo (Special Delivery))	Full	dramatically inhibited cell growth	substantial inhibition	dramatic effect on phenotype
RDC-1: PMO antisense to RDC-1, GAAGAGATGCAGATCCATCGTTCTG (SEQ ID NO:15) (all phosphorodiamidate morpholino (PMO); delivered paired with partially complementary DNA oligo (Special Delivery))	Full	dramatically inhibited cell growth	substantial inhibition	dramatic effect on phenotype
